Marks after values point to notes of the source that are not given here.
Legend:
HT29 = experiment: Anti-cancer activity, HT-29 colon adenocarcinoma cells (MTT); type: cell-based; details: Homo sapiens, HT-29, 120 h, 5 days, read-out: IC50 μM, HT29 Colorectal
[1] = tested on: A7r5 rat aortic smooth muscle cells; experiment: Proliferation of A7r5 rat aortic smooth muscle cells; type: cell-based; details: A7R5, 72 h, three days, read-out: IC50, inhibition of proliferation in A7r5 cells
Method: The effect of test compounds on human umbilical vein smooth muscle cells (HUVSMC), was examined. Cells, tissue explants from a neonate (HRI—passage 2), were seeded into 96 well plates at 1×10^3 cells per well, and allowed to attach for 24 hours. They were then washed twice and incubated in medium without foetal calf serum (FCS) for 24-48 hours to serum-starve them. Test compounds were prepared in medium without FCS and added to the plates and incubated for one hour. Medium with FCS was added to give a final concentration of 10% and the plates incubated for 4-5 days until the controls were just confluent.
The effect of test compounds on rat aortic smooth muscle cell line (A7r5) and another cell line from the media of rat aorta (A10) was examined. The methodology was the same as for HUVSMC, except that the cells were treated with compound for three days.

PMA-induced ear oedema = experiment: PMA-induced ear swelling in mice; type: in vivo, BALB/c mice; details: 25 mg/kg i/p; 5 h after PMA
Method: Groups of 5-6 female BALB/c mice (ARC, WA, Australia), weighing 15-21 g were injected intraperitoneally (i/p) with test compound at 25 mg/kg delivered in polyethylene glycol (PEG) 400: phosphate buffered saline (PBS) 1:1 or ethanol: propanediol: PBS 4:9:7 either 30 min prior to or immediately before the inflammogen was applied to the ears. Mice were anaesthetised using isoflurane and baseline thickness of both ears was measured using a spring micrometer. Each mouse received a total of 20 μL of either AA in ethanol (50 mg/ml or 200 mg/ml) or PMA in either ethanol or acetone (0.2 mg/ml) applied to the inner and outer surfaces of each pinna (i.e. 0.5 mg or 2 mg AA or 2 μg PMA per ear). Mice were anaesthetised again to re-measure the ears at 1 h post-AA application and 5 h after PMA. The difference in ear swelling pre- and post-application of inflammogen for each ear was calculated, and the average for the two ears of each mouse taken. The difference in mean swelling of each test group compared to the group given vehicle alone was calculated using a general ANOVA using Dunnett's Multiple Comparison test when multiple compounds were tested in the one experiment or a two-tailed […] t-test when only one compound was tested (Prism 4, Graphpad Software). The data has been presented graphically as the mean percentage inhibition of oedema, calculated as: […]. Results

HPAC = experiment: Anti-cancer activity, HPAC pancreatic cancer cells (MTT); type: cell-based; details: Homo sapiens, 120 h, 5 days
[2] = tested on: TXA2 synthesis in RA stimulated U937 cells; experiment: TXA2 synthesis in RA-stimulated U937 cells; type: cell-based, human; details: for TXA2 / TXA2 (pg): A23187; for TXA2 (pg): test compound 100 μM
Method: U937 cells were thawed and resuspended in RPM1 and 10% FCS at 2×10^5 cells per ml. The cells were incubated in 5% CO2 at 37° C. and expanded in growing culture to at least 6.4×10^7 total cells. The cells were then resuspended in fresh medium and cultured with […] (RA) at 2×10^5 cells per ml for a further 3 days (72 h). RA treated cells were washed 2× in serum-free RPM and resuspended in serum-free medium at 5×10^6 cells per ml. The cells were aliquotted into Teflon tubes at 1 ml per tube. Working stock solutions of each test compound were prepared at 0.1 mM, 1 mM and 10 mM as described above. For each test compound at each working dilution, 10 μl was added to 1 ml cells to achieve a final concentration of 0 (DMSO alone), 1, 10, and 100 μM for each test compound. Cells were incubated in triplicate with each concentration of test compound for 15 min at 37° C. After 15 min pre-incubation, each 1 ml tube of cells received 5 μl of a […] solution of the calcium ionophore A23187 (to achieve 0.5 μM A23187). Incubation at 37° C. was continued for a further 30 min. After incubation, supernatants were collected by centrifugation at 2000 rpm for 10 min and stored at −20° C. until required for assay.

E-selectin = experiment: TNFα-induced E-selectin expression in human arterial endothelial cells (ELISA); type: cell-based
Method: Inhibition of TNFα-stimulated endothelial cell activation by compounds was assessed by measuring surface expression of cell adhesion molecules with an ELISA method. Human arterial endothelial cells (HAEC) in growth medium (Cell Applications Inc.) were seeded into 96-well plates at a density of 10,000 cells per well. Plates were incubated overnight at 37° C. in a humidified incubator to allow for cells to become confluent. On the morning of the experiment, TNFα (10 μl, 2 ng/ml) was added to each well, which contained 100 μl of medium. Compounds were diluted in DMSO-containing medium (2.5% DMSO) to give a compound concentration of 100 and 300 μM. Compounds were added to wells so that final concentrations were 10 and 30 μM. DMSO-containing medium alone was added to zero concentration control wells. All samples were measured in quadruplicate (4 wells per treatment).
After incubation with compound, medium was removed and cells were probed with either non-specific IgG or specific mouse antibodies against E-selectin, ICAM or VCAM (BD Biosciences—0.1 μg in 100 μL buffered saline with 10% heat-inactivated human serum). Adhesion molecule expression was detected by addition of sheep anti-mouse antibody/horseradish peroxidase conjugate. […] Optical density was measured at 405 nm with an ELISA reader (Titertek Multiscan, Flow Laboratories). […]

SMILES	IC50 (HT29) [µM]	IC50 [1] [µM]	% Change compared with vehicle (PMA-induced ear oedema) [%]	Change in ear thickness (mean ± SD, × 0.01 mm) (PMA-induced ear oedema) [× 0.01 mm]	IC50 (HPAC) [µM]	TXA2 ([2]; test compound 1 μM) [pg]	TXA2 ([2]; test compound 10 μM) [pg]	TXA2 (pg) [2]	inhibition of E-selectin expression (E-selectin; TNFα-stimulated HAEC, 4 hrs, FIG. 18) [%]	effect on TXA2 synthesis ([2]; 100 μM)	effect on TNFα-induced E-selectin expression (E-selectin; HAEC, 10 μM found most appropriate for comparing)
Oc1ccc(C2=Cc3cc4c(cc3OC2)OCN(Cc2ccccc2)C4)cc1 [Compound 1, 4-(3-Benzyl-2,3,4,8-tetrahydrochromeno[6,7-e][1,3]oxazin-7-yl)phenol]	20.6 ± 2.1	23	−9	28.9 ± 3.1	18.2 ± 8.1	48.720 ± 2.927	17.421 ± 5.747	6.397 ± 0.557^a pg	> 50		
CC(c1ccccc1)N1COc2cc3c(cc2C1)C=C(c1ccc(O)cc1)CO3 (stereo not shown) [Compound 2, 4-(3-(1-Phenylethyl)-2,3,4,8-tetrahydrochromeno[6,7-e][1,3]oxazin-7-yl)phenol]	11.8 ± 0.7		−3	30.9 ± 2.2	18.3 ± 11	30.680 ± 2.708	21.298 ± 0.914	2.313 ± 0.113^a pg		inhibit TXA2 synthesis	
Oc1cccc(C2=Cc3ccc(O)cc3OC2)c1 [Compound 37-DHE, 3′,7-dihydroxy-isoflav-3-ene, reference compound]		45									less pronounced
